Measured values reported in patent US20060069132A1, “Azolecarboxamide herbicides” (priority 2004, published 2006).

Assays:
[1] = tested on: Surinam grass; experiment: Test B pre-/postemergence herbicide test; format: in vivo, Urochloa decumbens; settings: for Surinam Grass plant response rating: postemergence, visual rating
Method in brief: (§1)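 Herbicidal effect was judged by eye on a 0–100 scale after plants stood 13 to 15 days in the greenhouse following pre- or postemergence treatment with surfactant-containing formulations.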

[2] = tested on: barnyardgrass; experiment: Test B pre-/postemergence herbicide test; format: in vivo, Echinochloa crus-galli; settings: for Barnyardgrass plant response rating: postemergence, visual rating
Method in brief: (§2)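 Evaluation is visual, comparing treated with control plants on a scale where 0 means no effect and 100 means full control. Treatments were preemergence, or postemergence on seedlings 2–18 cm tall, and held 13–15 days in the greenhouse.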

[3] = tested on: velvetleaf; experiment: Test A pre-/postemergence herbicide test; format: in vivo, Abutilon theophrasti
Method in brief: (§3)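 Pre: seeded sandy loam, directed soil spray, compound in non-phytotoxic solvent + surfactant. Post: 1–2-leaf plants (2–10 cm), sprayed to runoff. Greenhouse ~10 d; visual injury vs untreated, 0–100 scale.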

[4] = tested on: rice; experiment: Test B flooded paddy test; format: in vivo, Oryza sativa; settings: 1000 g ai/ha, visual rating, scale 0 to 100 (0 no effect, 100 complete control), 13 to 15 days
Method in brief: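 Treated at 2-leaf (paddy) or 1–4-leaf, 2–18 cm (postemergence); greenhouse 13–15 d; visual score vs control, 0 none to 100 complete control; dash = not tested.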

[5] = tested on: cocklebur; experiment: Test B pre-/postemergence herbicide test; format: in vivo, Xanthium strumarium; settings: for Cocklebur plant response rating: postemergence, visual rating
Method in brief: as §2

[6] = tested on: wheat; experiment: Test B postemergence herbicide test; format: in vivo, Triticum aestivum; parameters: key to Wheat plant response rating: 0 = no effect, 100 = complete control; settings: scale 0 (no effect) to 100 (complete control); for Plant response rating, Wheat: Postemergence, 500 g ai/ha, visual rating after 13 to 15 days; for Wheat plant response rating: postemergence, 125 g ai/ha, visual rating
Method in brief: (§4)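 Scale 0–100: zero equals no visible effect, 100 complete control, judged by eye relative to controls. Timing: 13 to 15 days in greenhouse post-treatment. Growth stage at spraying: two leaves (paddy) or one to four leaves, 2–18 cm (postemergence).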

[7] = tested on: small flower umbrella sedge; experiment: Test B flooded paddy test; format: in vivo, Cyperus difformis; settings: 1000 g ai/ha, visual rating, scale 0 to 100 (0 no effect, 100 complete control), 13 to 15 days
Method in brief: (§5)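 Each value is a visual 0–100 response rating taken against controls 13 to 15 days after treatment in the greenhouse. Plants received formulated chemical postemergence at the 1- to 4-leaf stage or, in flooded paddy, at the 2-leaf stage.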

[8] = tested on: large crabgrass; experiment: Test A pre-/postemergence herbicide test; format: in vivo, Digitaria sanguinalis
Method in brief: as §3

[9] = tested on: velvetleaf; experiment: Test B pre-/postemergence herbicide test; format: in vivo, Abutilon theophrasti; settings: for Velvetleaf plant response rating: postemergence, visual rating
Method in brief: as §1

[10] = tested on: redroot pigweed; experiment: Test A pre-/postemergence herbicide test; format: in vivo, Amaranthus retroflexus
Method in brief: as §3

[11] = tested on: corn; experiment: Test B pre-/postemergence herbicide test; format: in vivo, Zea mays; settings: for Corn plant response rating: postemergence, visual rating
Method in brief: as §1

[12] = tested on: ducksalad; experiment: Test B flooded paddy test; format: in vivo, Heteranthera limosa; settings: 1000 g ai/ha, visual rating, scale 0 to 100 (0 no effect, 100 complete control), 13 to 15 days
Method in brief: as §5

[13] = tested on: rice; experiment: Test B pre-/postemergence herbicide test; format: in vivo, Oryza sativa; settings: preemergence
Method in brief: as §1

[14] = tested on: morningglory; experiment: Test A pre-/postemergence herbicide test; format: in vivo, Ipomoea spp.
Method in brief: as §3

[15] = tested on: pigweed; experiment: Test B pre-/postemergence herbicide test; format: in vivo, Amaranthus retroflexus; settings: for Pigweed plant response rating: postemergence, visual rating
Method in brief: as §1

[16] = tested on: lambsquarters; experiment: Test B pre-/postemergence herbicide test; format: in vivo, Chenopodium album; settings: for Lambsquarters plant response rating: postemergence, visual rating
Method in brief: as §1

[17] = tested on: wild oat; experiment: Test B postemergence herbicide test; format: in vivo, Avena fatua; settings: scale 0 (no effect) to 100 (complete control); for Plant response rating, Oat, Wild: Postemergence, 500 g ai/ha, visual rating after 13 to 15 days; for Oat, Wild plant response rating: postemergence, 125 g ai/ha, visual rating
Method in brief: as §4

[18] = tested on: morningglory; experiment: Test B pre-/postemergence herbicide test; format: in vivo, Ipomoea coccinea; settings: for Morningglory plant response rating: postemergence, visual rating
Method in brief: as §2

[19] = tested on: large crabgrass; experiment: Test B pre-/postemergence herbicide test; format: in vivo, Digitaria sanguinalis; settings: for Crabgrass, Large plant response rating: postemergence, visual rating
Method in brief: as §1

[20] = tested on: giant foxtail; experiment: Test B pre-/postemergence herbicide test; format: in vivo, Setaria faberi; settings: for Foxtail, Giant plant response rating: postemergence, visual rating
Method in brief: as §1

[21] = tested on: blackgrass; experiment: Test B postemergence herbicide test; format: in vivo, Alopecurus myosuroides; settings: scale 0 (no effect) to 100 (complete control); for Plant response rating, Blackgrass: Postemergence, 500 g ai/ha, visual rating after 13 to 15 days; for Blackgrass plant response rating: postemergence, 125 g ai/ha, visual rating
Method in brief: as §5

[22] = tested on: barnyardgrass; experiment: Test A pre-/postemergence herbicide test; format: in vivo, Echinochloa crus-galli
Method in brief: as §3

[23] = tested on: giant foxtail; experiment: Test A pre-/postemergence herbicide test; format: in vivo, Setaria faberi
Method in brief: as §3

[24] = tested on: barnyardgrass; experiment: Test B flooded paddy test; format: in vivo, Echinochloa crus-galli; settings: 1000 g ai/ha, visual rating, scale 0 to 100 (0 no effect, 100 complete control), 13 to 15 days
Method in brief: as §5

[25] = 500 g ai/ha, visual rating 0-100, 0 no effect, 100 complete control, preemergence
[26] = Postemergence, 500 g ai/ha, visual rating after 13 to 15 days, scale 0 (no effect) to 100 (complete control)
[27] = 125 g ai/ha, scale 0 (no effect) to 100 (complete control)
[28] = preemergence, 125 g ai/ha, 0 to 100 scale, 0 is no effect, 100 is complete control
[29] = Postemergence, 500 g ai/ha, 0 to 100 scale, 0 no effect, 100 complete control
[30] = Postemergence, 2000 g ai/ha, 0 to 100 scale, 0 no effect, 100 complete control
[31] = Preemergence, 500 g ai/ha, visual rating, 0 to 100 scale (0 no effect, 100 complete control)
[32] = Preemergence, 2000 g ai/ha, visual rating, 0 to 100 scale (0 no effect, 100 complete control)
[33] = Preemergence, 2000 g ai/ha, 0 to 100 scale, 0 no effect, 100 complete control
[34] = 500 g ai/ha, visual rating 0-100, 0 no effect, 100 complete control
[35] = 125 g ai/ha, 0 to 100 scale, 0 is no effect, 100 is complete control

CCn1nc(C(C)(C)C)cc1C(=O)Nc1cccc(C(=O)OC(C)C)c1C [Compound 92]
Plant response rating, Surinam Grass [1, 25]: 0
Plant response rating, Surinam Grass [1, 26]: 10
Surinam Grass plant response rating [1, 27]: 0
Plant response rating, Surinam Grass [1, 28]: 0
Plant response rating, Barnyardgrass [2, 25]: 0
Plant response rating, Barnyardgrass [2, 26]: 0
Barnyardgrass plant response rating [2, 27]: 0
Plant response rating, Barnyardgrass [2, 28]: 0
Velvetleaf plant response rating [3, 29]: 0
Plant response rating, Velvetleaf [3, 30]: 0
Velvetleaf plant response rating [3, 31]: 0
Velvetleaf plant response rating [3, 32]: 0
Rice plant response rating [4]: 0
Plant response rating, Cocklebur [5, 25]: 0
Plant response rating, Cocklebur [5, 26]: 0
Cocklebur plant response rating [5, 27]: 0
Plant response rating, Cocklebur [5, 28]: 0
Plant response rating, Wheat [6]: 0
Wheat plant response rating [6]: 0
Sedge, Umbrella plant response rating [7]: 0
Crabgrass, Large plant response rating [8, 29]: 0
Plant response rating, Crabgrass, Large [8, 30]: 10
Crabgrass, Large plant response rating [8, 31]: 0
Crabgrass, Large plant response rating [8, 33]: 0
Plant response rating, Velvetleaf [9, 25]: 0
Plant response rating, Velvetleaf [9, 26]: 0
Velvetleaf plant response rating [9, 27]: 0
Plant response rating, Velvetleaf [9, 28]: 0
Pigweed plant response rating [10, 29]: 0
Plant response rating, Pigweed [10, 30]: 0
Pigweed plant response rating [10, 31]: 0
Pigweed plant response rating [10, 33]: 35
Plant response rating, Corn [11, 25]: 0
Plant response rating, Corn [11, 26]: 10
Corn plant response rating [11, 27]: 10
Plant response rating, Corn [11, 28]: 0
Ducksalad plant response rating [12]: 0
Plant response rating, Rice [13, 34]: 0
Plant response rating, Rice [13, 35]: 0
Morningglory plant response rating [14, 29]: 0
Plant response rating, Morningglory [14, 30]: 0
Morningglory plant response rating [14, 31]: 0
Morningglory plant response rating [14, 33]: 0
Plant response rating, Pigweed [15, 25]: 0
Plant response rating, Pigweed [15, 26]: 10
Pigweed plant response rating [15, 27]: 0
Plant response rating, Pigweed [15, 28]: 0
Plant response rating, Lambsquarters [16, 25]: 0
Plant response rating, Lambsquarters [16, 26]: 20
Lambsquarters plant response rating [16, 27]: 20
Plant response rating, Lambsquarters [16, 28]: 0
Plant response rating, Oat, Wild [17]: 0
Oat, Wild plant response rating [17]: 0
Plant response rating, Morningglory [18, 25]: 0
Plant response rating, Morningglory [18, 26]: 0
Morningglory plant response rating [18, 27]: 0
Plant response rating, Morningglory [18, 28]: 0
Plant response rating, Crabgrass, Large [19, 25]: 10
Plant response rating, Crabgrass, Large [19, 26]: 10
Crabgrass, Large plant response rating [19, 27]: 0
Plant response rating, Crabgrass, Large [19, 28]: 0
Plant response rating, Foxtail, Giant [20, 25]: 10
Plant response rating, Foxtail, Giant [20, 26]: 0
Foxtail, Giant plant response rating [20, 27]: 0
Plant response rating, Foxtail, Giant [20, 28]: 0
Plant response rating, Blackgrass [21]: 0
Blackgrass plant response rating [21]: 0
Barnyardgrass plant response rating [22, 29]: 0
Plant response rating, Barnyardgrass [22, 30]: 0
Barnyardgrass plant response rating [22, 31]: 0
Barnyardgrass plant response rating [22, 33]: 0
Foxtail, Giant plant response rating [23, 29]: 0
Plant response rating, Foxtail, Giant [23, 30]: 0
Foxtail, Giant plant response rating [23, 31]: 0
Foxtail, Giant plant response rating [23, 33]: 0
Barnyardgrass plant response rating [24]: 0

CCn1nc(C(C)(C)C)cc1C(=O)Nc1cccc(C(=O)OCC2CC2)c1C [Compound 93]
Plant response rating, Surinam Grass [1, 25]: 0
Plant response rating, Surinam Grass [1, 26]: 10
Surinam Grass plant response rating [1, 27]: 10
Plant response rating, Surinam Grass [1, 28]: 0
Plant response rating, Barnyardgrass [2, 25]: 20
Plant response rating, Barnyardgrass [2, 26]: 10
Barnyardgrass plant response rating [2, 27]: 10
Plant response rating, Barnyardgrass [2, 28]: 0
Velvetleaf plant response rating [3, 29]: 10
Plant response rating, Velvetleaf [3, 30]: 15
Velvetleaf plant response rating [3, 31]: 10
Velvetleaf plant response rating [3, 32]: 25
Rice plant response rating [4]: 20
Plant response rating, Cocklebur [5, 25]: 0
Plant response rating, Cocklebur [5, 26]: 50
Cocklebur plant response rating [5, 27]: 50
Plant response rating, Cocklebur [5, 28]: 0
Plant response rating, Wheat [6]: 10
Wheat plant response rating [6]: 10
Sedge, Umbrella plant response rating [7]: 70
Crabgrass, Large plant response rating [8, 29]: 10
Plant response rating, Crabgrass, Large [8, 30]: 15
Crabgrass, Large plant response rating [8, 31]: 35
Crabgrass, Large plant response rating [8, 33]: 70
Plant response rating, Velvetleaf [9, 25]: 10
Plant response rating, Velvetleaf [9, 26]: 10
Velvetleaf plant response rating [9, 27]: 10
Plant response rating, Velvetleaf [9, 28]: 0
Pigweed plant response rating [10, 29]: 20
Plant response rating, Pigweed [10, 30]: 30
Pigweed plant response rating [10, 31]: 40
Pigweed plant response rating [10, 33]: 70
Plant response rating, Corn [11, 25]: 10
Plant response rating, Corn [11, 26]: 20
Corn plant response rating [11, 27]: 10
Plant response rating, Corn [11, 28]: 10
Ducksalad plant response rating [12]: 10
Plant response rating, Rice [13, 34]: 0
Plant response rating, Rice [13, 35]: 0
Morningglory plant response rating [14, 29]: 5
Plant response rating, Morningglory [14, 30]: 10
Morningglory plant response rating [14, 31]: 5
Morningglory plant response rating [14, 33]: 20
Plant response rating, Pigweed [15, 25]: 70
Plant response rating, Pigweed [15, 26]: 30
Pigweed plant response rating [15, 27]: 10
Plant response rating, Pigweed [15, 28]: 0
Plant response rating, Lambsquarters [16, 25]: 70
Plant response rating, Lambsquarters [16, 26]: 90
Lambsquarters plant response rating [16, 27]: 60
Plant response rating, Lambsquarters [16, 28]: 0
Plant response rating, Oat, Wild [17]: 10
Oat, Wild plant response rating [17]: 10
Plant response rating, Morningglory [18, 25]: 10
Plant response rating, Morningglory [18, 26]: 40
Morningglory plant response rating [18, 27]: 10
Plant response rating, Morningglory [18, 28]: 0
Plant response rating, Crabgrass, Large [19, 25]: 20
Plant response rating, Crabgrass, Large [19, 26]: 10
Crabgrass, Large plant response rating [19, 27]: 10
Plant response rating, Crabgrass, Large [19, 28]: 10
Plant response rating, Foxtail, Giant [20, 25]: 30
Plant response rating, Foxtail, Giant [20, 26]: 10
Foxtail, Giant plant response rating [20, 27]: 10
Plant response rating, Foxtail, Giant [20, 28]: 10
Plant response rating, Blackgrass [21]: 10
Blackgrass plant response rating [21]: 10
Barnyardgrass plant response rating [22, 29]: 20
Plant response rating, Barnyardgrass [22, 30]: 25
Barnyardgrass plant response rating [22, 31]: 25
Barnyardgrass plant response rating [22, 33]: 40
Foxtail, Giant plant response rating [23, 29]: 10
Plant response rating, Foxtail, Giant [23, 30]: 10
Foxtail, Giant plant response rating [23, 31]: 35
Foxtail, Giant plant response rating [23, 33]: 60
Barnyardgrass plant response rating [24]: 0
